In patent US7285555B2, “6-aryl-7-halo-imidazo[1,2-a]pyrimidines as anticancer agents” (Wyeth Holdings Corporation, priority 2003, dated 2007):

How the values were obtained:
[1] = tested on: highly purified tubulin (tubulin heterodimer); test: Competitive binding test procedure, [3H]vinblastine; set-up: species or system bovine; conditions: competitor 100 μM, [3H]vinblastine 100 nM
Procedure: (§1) Medium is RPMI-1640 with L-glutamine, supplemented with 10% heat-inactivated fetal calf serum, 100 units/mL penicillin, and 100 μg/mL streptomycin (Gibco, Grand Island, N.Y.). Microtubule-associated protein (MAP)-rich tubulin, containing about 70% tubulin and 30% MAPs (#ML113), and highly purified tubulin (>99% pure, #TL238), both from bovine brain, are obtained from Cytoskeleton, Inc., Denver, Colo. PEM buffer (80 mM piperazine-N,N′-bis[2-ethanesulfonic acid], pH 6.9, 1 mM ethylene glycol-bis(β-aminoethyl ether)-N,N,N′,N′-tetraacetic acid, 1 mM magnesium chloride) and guanosine 5′-triphosphate (GTP) are also obtained from Cytoskeleton. [^3H]paclitaxel, specific activity 14.7 Ci/mmol, is purchased from Moravek Biochemicals (Brea, Calif.). [^3H]vinblastine, specific activity 9.60 Ci/mmol and MicroSpin G-50 columns are obtained from Amersham Biosciences (Piscataway, N.J.). […] Other reagents are obtained from Sigma (St. Louis, Mo.).
(§2) The binding of examples of this invention to highly purified tubulin is studied by competitive inhibition methods. […] To study possible competition at the taxane site, on the other hand, polymerized tubulin (microtubules) is used because paclitaxel binds preferentially to microtubules.
(§3) Highly purified tubulin is dissolved in PEM buffer without GTP and used at a final concentration of 1.0 to 1.3 mg/ml (10 to 13 μM). […] These solutions are incubated at 240 for 1 hr and then applied to MicroSpin G-50 columns which are centrifuged for 2 min at 3000 rpm in an Eppendorf 5415C microfuge. An aliquot of each column effluent (containing tubulin and bound radioligand) is mixed with scintillation fluid and counted in a liquid scintillation spectrometer. […] Quadruplicates are averaged, and the ability of the competitor to inhibit the binding of the radioligand is expressed as a percentage of control binding in the absence of any competitor.

[2] = tested on: highly purified tubulin (tubulin heterodimer); test: Competitive binding test procedure, [3H]colchicine; set-up: species or system bovine; conditions: competitor 100 μM, [3H]colchicine 50 nM
Procedure: as §1, §2, §3

MAP-rich tubulin = test: Tubulin polymerization test procedure with MAP-rich tubulin; type: biochemical, bovine; conditions: MAP-rich tubulin with 1 mM GTP, compound 0.3 μM, at 20 min
Procedure: as §1
MAP-rich tubulin is dissolved in ice-cold PEM buffer containing 1 mM GTP (GPEM buffer) at a concentration of 1.3 mg/mL. The solution is centrifuged at top speed in an Eppendorf model 5415C microcentrifuge (Brinkmann Instruments, Westbury, N.Y.) for 10 min at 40 immediately before use. The tubulin solution is added to wells of a ½-area 96-well plate (Costar No. 3696, Corning, Inc., Corning, N.Y.) already containing the compounds of interest. Each compound is tested in duplicate at a final concentration of 0.3 μM in a volume of 110 μL per well. The final DMSO concentration in all wells is 0.3%. Control reactions, which receive compound solvent only, are done in quadruplicate. The plate is put in a SpectraMax Plus plate reader (Molecular Devices Corp. Sunnyvale, Calif.) thermostated at 240 and the absorbance of each well at 340 nm, a measure of the appearance of turbidity due to tubulin polymer formation, is determined every minute for 60 minutes. The absorbance at time 0 for each well is subtracted from each of the subsequent absorbance readings for that well, and then the duplicates are averaged.
In this assay, control reactions with MAP-rich tubulin show an S-shaped absorbance profile characterized by three phases: first, a lag phase during which no change in absorbance occurs; second, a polymerization phase in which absorbance increases; and third, a plateau phase in which absorbance has reached a maximum and little or no further change occurs. Polymerization enhancers such as paclitaxel and docetaxel shorten or eliminate the lag phase, increase the rate of the polymerization phase, and often increase the height of the plateau. […] This has been expressed quantitatively in Table 6 by dividing the mean A340 of each sample at 20 min by the mean A340 of the control at 20 min to give a fold enhancement over control. […]

[3] = tested on: polymerized tubulin (microtubules); test: Competitive binding test procedure, [3H]paclitaxel; set-up: species or system bovine; conditions: [3H]paclitaxel 2.1 μM
Procedure: as §1, §2
For competition with [^3H]paclitaxel, highly purified tubulin is dissolved in PEM buffer containing 0.75 M glutamate and 25 μM dideoxy-GTP; final protein concentration is 0.25 to 0.35 mg/mL (2.5 to 3.5 μM). These conditions foster the rapid formation of short, stable microtubule polymers (Hamel, E., del Campo, A. A., and Lin, C. M. Stability of tubulin polymers formed with dideoxyguanosine nucleotides in the presence and absence of microtubule-associated proteins. J. Biol. Chem., 259: 2501-2508, 1984). […] The reactions are then centrifuged at top speed in an Eppendorf 5415C microfuge for 20 min at room temperature in order to pellet the microtubule protein. Triplicate aliquots of each supernatant are mixed with scintillation fluid and counted in a liquid scintillation spectrometer. From the amount of radioactivity in the supernatants and the measured total starting radioactivity, the amount of [^3H]paclitaxel bound to pelleted microtubule protein is calculated. The ability of each competitor to inhibit radioligand binding to pelleted protein is expressed as a percent of controls without any competitor.

pure tubulin = test: Tubulin polymerization test procedure with pure tubulin; type: biochemical, bovine; conditions: for polymerization of pure tubulin without GTP (in words): pure tubulin without added GTP
Procedure: as §1
The procedure with pure tubulin is similar except for the following changes. […] The supernatant after centrifugation is dispensed to a ½-area 96-well plate already containing compounds. Each compound is tested in duplicate at a final concentration of 24.3 μM. The plate reader μs thermostated at 35°.

Row | SMILES | [3H]Vinblastine binding, Mean, percent of binding to control without competitor [1] [%] | [3H]Colchicine binding, Mean, percent of binding to control without competitor [2] [%] | [3H]Colchicine binding, Mean, percent of binding to control without competitor ([2]; listed as example 6) | A340 Compound / A340 Control (fold enhancement over control) (MAP-rich tubulin) | [3H]Paclitaxel binding, Mean, percent of binding to control without competitor ([3]; competitor 20 μM) [%] | [3H]Paclitaxel binding, Mean, percent of binding to control without competitor ([3]; competitor 20 μM, listed as example 6) | polymerization of pure tubulin without GTP (in words) (pure tubulin) | A340 at 0 min (pure tubulin; pure tubulin, no added GTP, compound 24.3 μM, 0 min) | A340 at 5 min (pure tubulin; pure tubulin, no added GTP, compound 24.3 μM, 5 min) | A340 at 10 min (pure tubulin; pure tubulin, no added GTP, compound 24.3 μM, 10 min) | A340 at 15 min (pure tubulin; pure tubulin, no added GTP, compound 24.3 μM, 15 min) | A340 at 20 min (pure tubulin; pure tubulin, no added GTP, compound 24.3 μM, 20 min) | [3H]Paclitaxel binding, Mean, percent of binding to control without competitor ([3]; competitor unlabeled paclitaxel 5 μM) [%]
1 | CN(C)CCCOc1cc(F)c(-c2c(Cl)nc3nccn3c2C2CCCCCC2)c(F)c1 [Example 6, 3-[4-(7-Chloro-5-cycloheptylimidazo[1,2-a]pyrimidin-6-yl)-3,5-difluorophenoxy]-N,N-dimethylpropan-1-amine] | 17 | 84 | does not inhibit | 1.7 | 92 | does not inhibit | induces polymerization | 0 | 0.15 | 0.19 | 0.19 | 0.19 | 
2 | CC(=O)O[C@H]1C(=O)[C@@]2(C)[C@H]([C@H](OC(=O)c3ccccc3)[C@]3(O)C[C@H](OC(=O)[C@H](O)[C@@H](NC(=O)c4ccccc4)c4ccccc4)C(C)=C1C3(C)C)[C@]1(OC(C)=O)CO[C@@H]1C[C@@H]2O [Paclitaxel, reference compound] | 92 | 93 |  | 1.8 |  |  | able to induce polymerization |  |  |  |  |  | 35
